Experimental data reported in article PMC7013346, “Bioaccessibility and Pharmacokinetics of a Commercial Saffron (Crocus sativus L.) Extract” (Evidence-based Complementary and Alternative Medicine : eCAM, 2020).
Where two headings read alike, the source gives them in different places. Marks after values point to notes of the source that are not given here.

What was measured:
[1] = Abiotic in vitro digestion (salivary, gastric, duodenal steps) of affron® tablets, HPLC-PAD/MS quantification; assay type: in vitro ADME; conditions: for Bioactive molecule content, initial sample: affron® before in vitro digestion; for Bioactive molecule content, initial sample / Bioactive molecule content, digested sample, duodenal / Bioactive molecule content, digested sample, gastric / Bioactive molecule content, digested sample, salivary: mean ± SD; for Bioactive molecule content, digested sample, duodenal: after duodenal step, 150 min, pH 7, 37°C, pancreatin and bile extract; for Bioactive molecule content, digested sample, gastric: after gastric step, 90 min, pH 2, 37°C, pepsin; for Bioactive molecule content, digested sample, salivary: after salivary step, 5 min, pH 6.9, 37°C, α-amylase; for Bioaccessibility: after whole in vitro digestion of affron® tablets, relative to initial content
Method: Briefly, the salivary step runs for 5 min at pH 6.9 and 37°C, under aerobic conditions with 3.9 units α-[…]. Then, the samples were transferred for 90 min to the gastric step at pH 2 and 37°C with 71.2 units pepsin/ml under anaerobic conditions. Finally, the duodenal step was set for 150 min at pH 7 and 37°C, with 9.2 mg pancreatin/ml and 55.2 mg bile extract/ml under anaerobic conditions. Samples were taken from every steps and were centrifuged at 7000 g for 40 min at 4°C. […] All samples were analysed at least in duplicate. High-performance liquid chromatography (HPLC) analysis of bioactive components from initial and digested saffron extract was performed using an Agilent Technologies 1220 Infinity series system equipped with a photodiode array detector (PAD) according to Kell et al., while the analysis of crocetin was according to Umigai et al.. […] To estimate the percentage of bioaccessibility of the main bioactive compounds of affron®, an equation was used according to Ordoudi et al.

[2] = Single-dose pharmacokinetics of crocetin in plasma after oral affron® tablets in healthy volunteers; assay type: in vivo, human; conditions: for Detection in plasma after affron® intake: human plasma, 0.5-3 h and 24 h after 56 or 84 mg affron®, HPLC
Method: A single dose, randomized, double blinded study was used to evaluate the pharmacokinetics of two different saffron doses (56 mg and 84 mg). The randomization code was generated by Random Allocation Software, sealed envelope (London, UK). Enrolled participants were then allocated to one of two groups: group 1: consumed 4 × 14 mg of affron® tablets (56 mg single dose); group: 2 : 6 × 14 mg of affron® tablets (84 mg single dose).
The subjects of the pharmacokinetics were adult male (n = 5) and female (n = 8; nonpregnant and nonlactating) healthy volunteers of 18–30 years age. All participants self-reported to be in normal physical health (BMI < 30) and passed the exclusion screening. Exclusion criteria included suffering clinically significant medical condition, such as, but not limited to, cardiovascular, neurological, psychiatric, renal, immunological, endocrine (including uncontrolled diabetes or thyroid disease), or uncontrolled haematological abnormalities. Other exclusion criteria were the use within the past 3 months of the tested compounds and/or antioxidants; no current use of prescription medications except the oral contraceptive pill in women; and known allergy to any tested compound and/or antioxidant.
All participants were advised to fast from 10 : 00 pm prior to the study until the collection of the first blood sample. Fasting was broken immediately after dosing the corresponding tablets. At time 0 h and at 4 h after dosing, balanced breakfasts (410 kcal, approximately 30% of them from fats) and lunches (625 kcal, approximately 30% from fats) were served at the center. The meals were poor in carotenoids. Subjects remained onsite for the full first 6 hours of sample collection and returned to the center again for the 24 h samples. Subjects were monitored and asked to report any possible side-effects experienced due to intake of the tablets during the whole 24 h time after the intake of the tablets.
For crocetin pharmacokinetic analysis, blood samples (3 ml collected into tubes with EDTA) were drawn prior to affron® supplementation (time 0 h), between time 30 and 180 min at every 30 min and 24 h after supplementation. The blood tubes were briefly mixed by inversion and put on ice and centrifuged (600 g, 4°C for 10 min) to separate the plasma. The EDTA-plasma of every sample was carefully removed in 3 aliquots (500 μl each) and stored at −20°C for less than 48 h before being finally transported and stored at −80°C.
Plasma samples were extracted based on the method described and validated by Mohammadpour et al.. Briefly, plasma samples were thawed to room temperature. Then, 20 μl of an internal standard solution of 13-cis-retinoic acid and 120 μl acetonitrile were added to 100 μl of sample. The samples tubes were capped and vortexed for 10 s and put on ice for 5 min. The samples were then gently rotated for 10 minutes before centrifuging at 12000 g for 10 min. The supernatant was collected and analysed by HPLC.
The efficiency of the extraction process was estimated by the measure of the residual amount of the internal standard, and 13-cis-retinoic acid was recovered after the analysis. The recovery percentage was then applied to the results to calculate the true concentration of crocetin in the samples.
The chromatogram of a sample of pure standard crocetin and its typical absorption wavelength were used to identify and confirm the crocetin peak in every analysis, as shown in Mohammadpour et al..
The crocetin concentration in biological samples was calculated using a standard linear curve at several crocetin concentration and the Shimadzu software for chromatogram analysis. All samples fell within the range of the linear standard curve (concentration (μg/ml) = (AUC + 131.56)/9475). The intra-assay precision CV was 4.8%, and the interassay variability and precision CV were 7.3%, with a blood detection limit of 0.05 μg/ml.
Pharmacokinetic parameters were derived using GraphPad Prism 7.0 (California, USA). […]

[3] = set-up: method as in PMID 21112749; conditions: human, single oral dose of 22.5 mg of crocetin from G. jasminoides; cited from earlier work
[4] = set-up: method as in PMID 23638292; conditions: human, single oral dose of 16 mg of saffron crocetins; cited from earlier work

Compound	Reduction of content during gastric digestion ([1]; acid-pepsin environment, gastric step) [%]	Bioactive molecule content, initial sample [1]	Bioactive molecule content, digested sample, duodenal [1]	Bioactive molecule content, digested sample, gastric [1]	Bioactive molecule content, digested sample, salivary [1]	Bioaccessibility [1] [%]	Change of concentration over the whole in vitro digestion process vs initial composition ([1]; salivary, stomach and duodenal steps)	half-life ([2]; both sexes, plasma, crocetin after oral affron® tablets, human, dose not separated, read-out: Plasmatic half-life (converted)) [min]	Clearance ([2]; crocetin after oral affron® tablets, human, dose not separated) [L/h]	Time after administration at which plasma crocetin fell to the HPLC-PAD quantification limit / ceased to be detected ([2]; human, 56 or 84 mg affron®) [h]	Crocetin concentration in plasma 24 h after affron® intake ([2]; human, 24 h, detection limit 0.05 μg/ml)	Cmax [3] [ng/mL]	Cmax [4] [ng/mL]	Decrease of content after the digestion process ([1]; whole in vitro digestion vs initial conditions) [%]	Detection in plasma after affron® intake [2]	Detection in plasma after affron® intake ([2]; listed as picrocrocin)	Bioactive molecule content, initial sample ([1]; listed as safranal)	Bioactive molecule content, digested sample, duodenal ([1]; listed as safranal)	Increase of content after the digestion process vs initial concentration ([1]; whole in vitro digestion)	Detection in plasma after affron® intake ([2]; listed as safranal)
CC(/C=C/C=C(\C)C(=O)O[C@@H]1O[C@H](CO[C@@H]2O[C@H](CO)[C@@H](O)[C@H](O)[C@H]2O)[C@@H](O)[C@H](O)[C@H]1O)=C\C=C\C=C(C)\C=C\C=C(/C)C(=O)O[C@@H]1O[C@H](CO[C@@H]2O[C@H](CO)[C@@H](O)[C@H](O)[C@H]2O)[C@@H](O)[C@H](O)[C@H]1O (relative stereo) [t-crocin-4, trans-crocin-4]	84	1.66 ± 0.04^b %, dry basis	0.20 ± 0.04^a %, dry basis	0.26 ± 0.03^a %, dry basis	1.11 ± 0.43^b %, dry basis	12.05														
CC(/C=C/C=C(\C)C(=O)O)=C\C=C\C=C(C)\C=C\C=C(/C)C(=O)O [Crocetin]		0.03 ± 0.01^a %, dry basis	0.02 ± 0.01^a %, dry basis	0.03 ± 0.01^a %, dry basis	0.02 ± 0.01^a %, dry basis	66.67	did not increase	51 ± 2.4	2.70 ± 0.14	3	below the detection limit	280	350							
CC1=C(C=O)C(C)(C)CC(O[C@@H]2O[C@H](CO)[C@@H](O)[C@H](O)[C@H]2O)C1 (stereo partly drawn) [Picrocrocin, 4-(β-D-glucopyranosyloxy)-2,6,6-trimethyl-1-cyclohexene-1-carboxaldehyde]		3.21 ± 0.07^c %, dry basis	2.61 ± 0.05^b %, dry basis	2.07 ± 0.02^a %, dry basis	3.14 ± 0.11^c %, dry basis	81.31								19	absent	not detected				
CC1=C(C=O)C(C)(C)CC=C1 [Safranal]		0.04 ± 0.01^a %, dry basis	0.08 ± 0.01^b %, dry basis	0.21 ± 0.01^c %, dry basis	0.03 ± 0.00^a %, dry basis	200.00									not detected or appeared below the detection limit		0.04 %, dry basis	0.08 %, dry basis	about 2 folds	not detected
Kaempferol diglucoside		0.13 ± 0.01^b,c %, dry basis	0.09 ± 0.01^a %, dry basis	0.12 ± 0.01^b %, dry basis	0.14 ± 0.01^c %, dry basis	69.23														
